The values below come from article PMC8307904, “Synthesis and Structure of Novel Copper(II) Complexes with N,O- or N,N-Donors as Radical Scavengers and a Functional Model of the Active Sites in Metalloenzymes” (International Journal of Molecular Sciences, 2021).

The nature of data set [1]: ABTS radical assay (free radical scavenging). The class given is biochemical. Here is the method: We investigated the free radical scavenging ability of the selected ligands and their newly synthesised complexes using the ABTS assay. 2,2′-Azinobis-[3-ethylbenzthiazoline-6-sulfonic acid] (ABTS) was dissolved in Milli-Q water to yield a 7 mM solution. The ABTS radical cation solution was prepared by allowing the ABTS solution to react with the K2S2O8 solution (final concentration 2.45 mM) for 16 h in the dark at room temperature. It has been reported that the extinction coefficient of ABTS^•+ radicals at 734 nm is 1.5 × 10^4 mol^−1 L cm^−1. Using the Beer–Lambert law, ABTS^•+ radical concentrations were calculated. To determine the antioxidant capacity of the complex solutions and standard antioxidant (Trolox), the ABTS solution was diluted with 5 mM PBS (pH 7.4) to an absorbance at 732 nm of 0.7 ± 0.1 After the addition of different volumes (0–1 mL) of each compound solution to 2.5 mL of diluted ABTS^•+, the absorbance was measured at 30 min. All samples were analysed in triplicate. The ABTS^•+radical scavenging activity (AA%) was calculated using the following equation: AA% = ((Acontrol − Asample)/(Acontrol)) × 100, where Acontrol is the absorbance of the blank control (containing ABTS^•+ solution without test sample) and Asample is the absorbance of the test sample. The antioxidant activity was described as the 50% inhibition concentration (IC50). The IC50 values were calculated from regression lines where x is the concentration of complex or ligand in mM and y is the percent inhibition of the analysed compound.

On the set-up of data set [2]: method as in PMID 24406400. The conditions noted are these: aqueous solution; cited from earlier work.
Data set [3] concerns HT29 (colon adenocarcinoma). Nature of the data set: in vitro cytotoxicity / proliferation, HT29. The class given is cell-based, human. The conditions noted are these: read-out: IC50 (inhibits proliferation of 50% of cells). From the text:
(§1) For IC50 determination, the human cancer lines A549 (non-small cell lung carcinoma), HT29 (colon adenocarcinoma) and MCF-7 (breast adenocarcinoma), and a healthy mouse fibroblast cell line (BALB/3T3), were used. All tested cell lines were obtained from the American Type Culture Collection (Rockville, MD, USA) and maintained at the Cell Culture Collection of the Hirszfeld Institute of Immunology and Experimental Therapy (Wrocław, Poland). The details of the experimental conditions were described in [69]. […] IC50 values were calculated separately for each experiment, which was repeated 3–5 times.

For data set [4], the system named is healthy mouse fibroblast cell line (BALB/3T3). Nature of the data set: in vitro cytotoxicity / proliferation, BALB/3T3. The conditions noted are these: for IC50: BALB/3T3 normal cell line, read-out: IC50 (inhibits proliferation of 50% of cells). The class given is cell-based.
Text: as §1

A short description of data set [5]: stability in buffer solution (PBS) by UV-Vis. The class given is physicochemical. The settings on record: room temperature, 0 min and 12 h, UV-Vis spectra. Here is the method:
(§2) Among the synthetic compounds used for modelling biological systems, mimetics that are soluble in solvents of neutral pH are particularly favoured because they can penetrate cell membranes and, thus, be absorbed by the organism. […] Additionally, we checked the stability of selected complexes in buffer solution (PBS) at two different time points (0 min and 12 h).

The nature of a further data set: solubility. The class given is physicochemical. The protocol: as §2
For the next data set, the system named is CAT. Nature of the data set: CAT activity (Catalase assay kit) in patients' blood samples after addition of the mimetic. The format is biochemical, human. The settings on record: post-chemotherapy group, 25 µg/mL, versus samples without complex. The source says: (§3) The present study was based on 20 women of the Regional Hospital in Kielce who had previously undergone therapy for diagnosed breast tumour, and 10 healthy volunteers (samples were anonymised). Patients were divided into subgroups those after chemotherapy (n = 10) and after radiotherapy (n = 10). The protocol and procedures were undertaken according to the Helsinki Declaration and were approved by the Bioethics Committee of the Świętokrzyska Medical Chamber in Kielce (permission number 1/2015-B). Before obtaining blood, patients and healthy subjects signed informed consent and agreed to the use of the samples for research purposes. Approximately 5 mL of blood was taken from the patients by venous puncture. Blood samples were collected in 3 mL tubes containing EDTA as an anticoagulant, and in tubes with no anticoagulant. Tubes were centrifuged at 3500 rpm for 15 min to obtain plasma and serum, respectively. […]
(§4) The activities of TAS, SOD, CAT and GPx were measured using commercial kits, according to the manufacturers’ instructions. […]
The CAT activity measurement was measured with the Catalase assay kit (Calbiochem, Merck, Darmstadt, Germany) based on the reaction of the enzyme with methanol in the presence of an optimal concentration of H2O2 [72]. The formaldehyde produced is measured colourimetrically (at 540 nm) with 4-amino-3-hydrazino- 5-mercapto-1,2,4-triazole (Purpald) as the chromogen.

Another data set deals with SOD. Description: SOD activity (RANSOD test) in patients' blood samples after addition of the mimetic. The class given is biochemical, human.
Text: as §3, with “respectively. Erythrocytes were washed with 0.9% sodium chloride.” for “respectively.”
as §4
The SOD activity was measured with the RANSOD test (Randox Laboratories, United Kingdom) based on the method of McCord and Fridovich. […] The superoxide dismutase activity is measured by the degree of inhibition of this reaction. […] The activity of SOD was measured spectrophotometrically at 505 nm and expressed as U/mL.

The subject of data set [6] is total antioxidant status (TAS). Nature of the data set: TAS level (RANDOX test) in patients' blood samples after addition of the mimetic. The class given is biochemical, human. The conditions noted are these: post-chemotherapy group, 25 µg/mL, versus samples without complex.
Text: as §3, with “respectively. Erythrocytes were washed with 0.9% sodium chloride.” for “respectively.”
as §4
The TAS level was evaluated by RANDOX test (Randox Laboratories, United Kingdom) following the method described by Miller et al.. […] Suppression of the blue-green colour of radicals (measured at 600 nm) is proportional to antioxidants’ concentration (TAS). The results were expressed as mmol/L serum.

Data set [7] deals with MCF-7 (breast adenocarcinoma). Description: in vitro cytotoxicity / proliferation, MCF-7. The format is cell-based, human. The conditions noted are these: read-out: IC50 (inhibits proliferation of 50% of cells).
Text: as §1

The subject of data set [8] is A549 (non-small cell lung carcinoma). Description: in vitro cytotoxicity / proliferation, A549. The format is cell-based, human. The conditions noted are these: read-out: IC50 (inhibits proliferation of 50% of cells).
Text: as §1

The mark [9] stands for this setting: ABTS^•+ diluted with 5 mM PBS pH 7.4, absorbance at 30 min, read-out: IC50 (ABTS radical scavenging activity).

Entries after “also recorded” stand apart in the source; their conditions may differ. Like-named read-outs stand apart in the source and are kept apart here.

Take `OCc1ccccn1` [2-(HOCH2)py, 2-(hydroxymethyl)pyridine, reference compound]: the IC50 in data set [1] (setting [9]) worked out at 3.79 ± 0.23 mM.
On the same count and under the same terms, with `OCCc1ccccn1` [2-(HOCH2CH2)py, 2-(hydroxyethyl)pyridine, reference compound] the figure was 7 mM.
On to `O.O.OCc1ccccn1.OCc1ccccn1.OCc1ccccn1.OCc1ccccn1.[Cl-].[Cl-].[Cl-].[Cl-].[Mn+2].[Mn+2]` [[Mn2(μ-Cl)2(2-CH2OHpy)4]Cl2·2H2O], for which the “TOF (catalytic activity, H2O2 decomposition)” value in data set [2] was 0.0187 min⁻¹.
For `N.N.[Cl][Pt][Cl]` [cisplatin, reference compound], the figures for the IC50 in data set [3] and in [4] were 9.23 ± 0.77 µM and 3.33 ± 0.38 µM, respectively.
In the case of `OCCc1ccccn1.OCCc1ccccn1.[Cu+2].[Cu+2].[O-]CCc1ccccn1.[O-]CCc1ccccn1.[O-][Cl+3]([O-])([O-])[O-].[O-][Cl+3]([O-])([O-])[O-]` [complex 3, [Cu2(2-(HOCH2CH2)py)2(2-(OCH2CH2)py)2](ClO4)2], the “stability in buffer solution (PBS)” value in data set [5] was “confirmed the stability”. In data set [1] (setting [9]), the IC50 is 0.62 ± 0.05 mM. Besides, in the data set “solubility”, the solubility in water entry was “soluble in water”.
For `OC(O)(c1ccccn1)c1ccccn1.OC(O)(c1ccccn1)c1ccccn1.[Cu+2].[O-][Cl+3]([O-])([O-])[O-].[O-][Cl+3]([O-])([O-])[O-]` [complex 5, [Cu(py2C(OH)2)2](ClO4)2], in that order: “confirmed the stability”, 24.5 ± 0.5 mM and “soluble in water”.
Take [Cu(2-(HOCH2)py)3](ClO4)2 [complex 1]: in [5], the “stability in buffer solution (PBS)” value is recorded as “confirmed the stability”. Further, in the data set on CAT, the “increase of CAT enzyme activity after addition of the mimetic” value is reported as 0.18 U/mL. Further, the “SOD activity higher compared to the control group” value in the data set with SOD (post-chemoradiotherapy group with mimetic) came to 4.2 U/mL. Moreover, the SOD activity with SOD (post-chemotherapy group, complex 25 μg/mL of blood) was determined as 211.91 U/mL. The IC50 worked out at 98.5 ± 2.7 µM in [3]; 106 ± 4.2 µM in data set [4]; 0.26 ± 0.03 mM in data set [1] (setting [9]); 0.26 ± 0.03 mM in data set [1] (Figure 10a and b50, unit inferred, read-out: IC50 (ABTS radical scavenging), unit inferred); 91.7 ± 2.9 µM in data set [7]; 94.7 ± 3.9 µM in [8]. The “increase of total antioxidant status after addition of the mimetic” value in [6] turned out to be 0.17 U/mL. The “lower cytotoxicity against normal cell line compared to cisplatin” value in data set [4] (BALB/3T3, versus cisplatin) was “about 30 times”. Besides, the solubility in water entry in “solubility” is given as “soluble in water; also recorded: good solubility in water”.
